In patent publication US20230107216A1, “PANTETHEINE DERIVATIVES AND USES THEREOF” (Comet Therapeutics, Inc., priority 2018, published 2023):

How the values were obtained:
[1] = test system: Vitamin B12 deficiency (Cbl−/− diet) mouse model; assay: Vitamin B12 deficiency mouse model: muscle strength by grip test; type: in vivo, mice; conditions: after 17 days of 50 mpk QD, IP
Experimental: Mice at 18 weeks of age were either fed on control diet (n=12 mice) or cbl−/− diet (n=30 mice) for 15 weeks. Grip strength test was measured by using a Grip Strength test meter for mice and rats (Jiangsu, SANS Biological Technology, CO. LTD, SA417) and recorded as day zero grip strength analysis. Briefly, machine was turned on (push peak) and calibrated to zero. Front leg strength was measured by pulling the mice away from the bar by holding the tail of the mice. Total 5 values were measured for each mouse. After the measurement the cbl−/− mice were divided into three groups of N=10 mice per group. Each group received either vehicle (0.1% saline) or Compound 410 or Compound 500, IP at the dose of 50 mpk QD. […]

[2] = test system: Vitamin B12 deficiency (Cbl−/− diet) mouse model; assay: Vitamin B12 deficiency mouse model: liver protein determination (ELISA, TNFα, protein carbonyls); type: in vivo, C57BL/6 mice
Experimental: A vitamin B12 deficiency mouse model was used following the methods described at Ghosh et al 2016.
Animal maintenance and feeding. Female weanling C57BL/6 mice (n=65) were obtained at 3 weeks of age from Shanghai Sippe-Bk Lab Animal Co., Ltd. The mice were housed in a SPF environment and maintained at 20° C.±6, under standard lighting conditions (12-h light/dark cycle). Animals were divided into 5 animals per cage during modelling, and 3 animals per cage during compound test. The 3-week old mice were fed ad libitum with either AIN-76A control diet (D10001i) designated as control diet group or the same diet deficient in vitamin B12 (D07012902) with pectin as the source of fiber (designated as Cbl−/− cobalamin deficient) referred to as B12R+ by Ghosh et al. (Research Diets Inc., New Brunswick, N.J., USA). Cobalamin-restricted diet with pectin (B12R+) contained 50 g pectin/kg diet, because it has been shown earlier that pectin binds the intrinsic factor in the intestine and makes vitamin B12 less bioavailable. The control diet contained 50 g cellulose/kg diet as the fiber source instead of pectin. The mice also had ad libitum access to deionized water. Food intake and body weights were recorded every week.
Compound treatment. After 6 weeks of feeding on either control or Cbl−/− diet, 9-week-old mice on Cbl−/− diet were randomly assigned into 5 groups with 3 mice per group per treatment. […]

COC(=O)CC(C(C)=O)C(=O)SCCNC(=O)CCNC(=O)[C@H](O)C(C)(C)CO (stereo partly shown) [Compound 410]
Grip strength ([1]; mice on the cbl−/− diet (36.5 g; control diet 59 g)): 57.7 g
Recovery of grip strength ([1]; mice on the cbl−/− diet): recovered grip strength to near the level of mice on the control diet
Protein Carbonyl in liver homogenates ([2]; mice on the cbl−/− diet (untreated 25.4 pg/ug; control diet 16.6 pg/ug)): 11.1 pg/µg
TNF-α in liver homogenates ([2]; mice on the cbl−/− diet (untreated 171.8 pg/ug; control diet 121.46 pg/ug)): 62 pg/µg
